Results: PMC11537802, “The Neuroprotection of 1,2,4‐Triazole Derivative by Inhibiting Inflammation and Protecting BBB Integrity in Acute Ischemic Stroke” (CNS Neuroscience & Therapeutics, 2024)

How the values were obtained:
Type in all cases: in vivo, Sprague–Dawley rats
[1] = tested on: MCAO rats; experiment: neurological score (Zea-Longa) in MCAO rats; settings: 15 mg/kg (SYS18 high dose; edaravone i.p.), 48 h after surgery, model 2.42 ± 0.84, p < 0.01
Text: C57BL/6 mice were randomly assigned to treatment groups by body weight. Operator blind to treatment status of animals. After the mice were anesthetized, a midline cervical incision was made. The left common carotid artery and external carotid artery were isolated and ligated. Arterial clamps were placed at the preparation line and distal end of the internal carotid artery. An incision was made at the bifurcation of the common carotid artery. 4–0 nylon line was inserted to a depth of 17–20 mm. The nylon line entered the internal carotid artery; then, it entered the skull to the anterior cerebral artery and blocked all blood flow sources in the middle cerebral artery. After keeping ischemic for 1 h, the animals were re‐anesthetized and then pulled out the nylon line for about 1 cm to achieve reperfusion for up to 48 h. The wound was disinfected with iodophor, and the skin was sutured. Put them on the electric blanket to maintain the body temperature after the completion of surgery; then, they were returned to cages upon recovery. For the sham group, except that no nylon line is inserted, other steps are the same as above. Sham group and model group were given 20% polyoxyethylene castor oil. Subsequently, the animals were sacrificed, and the serum and brains were collected for a series of subsequent analyses and studies.
Rats were randomly divided into five groups: Sham group (n = 24), rats received sham operation; MCAO model group (n = 30); SYS18 low‐dose group (7.5 mg/kg, n = 30); SYS18 high‐dose group (15 mg/kg, n = 30); and Positive control group rats were intraperitoneally injected with edaravone (15 mg/kg, n = 30). […]
According to Zea‐Longa 4‐point scoring criteria, the animals were scored for neurological function at 48 h after surgery. […] And the degree of each animal model was scored as follows: 0 point, no symptoms of nerve injury; 1 point, inability to fully extend the forepaw; 2 points, circling laterally; 3 points, tip to the opposite side; 4 points, inability to walk spontaneously and loss of consciousness. […]

[2] = tested on: IL‐1β; experiment: serum IL-1β in MCAO rats (ELISA); settings: 15 mg/kg, 48 h, p < 0.05
Procedure: (§1) Rats were randomly divided into five groups: Sham group (n = 24), rats received sham operation; MCAO model group (n = 30); SYS18 low‐dose group (7.5 mg/kg, n = 30); SYS18 high‐dose group (15 mg/kg, n = 30); and Positive control group rats were intraperitoneally injected with edaravone (15 mg/kg, n = 30). The tested compound was dissolved in 20% polyoxyethylene castor oil and was administered 0.5 h before operation and 6, 12, 24, and 36 h after reperfusion. The measurements were carried out 48 h after the operation. Ten animals in each group were used to measure brain water content, and 10 animals in each group were used to detect Evans blue content in brain tissue. Ten animals in each group were used for determination of biochemical indicators and pathological observations and WB experiments.
(§2) Blood sample was collected at 48 h after MCAO. After centrifugation at 4°C × 12,000 g for 10 min, the clear supernatant was stored at −80°C. The components of SOD, MDA, TNF‐α, and IL‐1β in the blood samples were measured according to the instructions of the assay kits.

[3] = tested on: SOD; experiment: serum SOD in MCAO rats (kit); settings: 15 mg/kg, 48 h
Procedure: as §1, §2

[4] = tested on: MCAO rats; experiment: blood–brain barrier permeability (Evans blue content in brain) in MCAO rats; settings: 15 mg/kg (SYS18 high dose; or edaravone positive control), 48 h
Procedure: as §1
The integrity of the BBB was investigated using Evans blue (EB). Forty‐six hours after reperfusion, rats were injected with EB (4% saline, 4 mL/kg) via the tail vein. Two hours later, rats were anesthetized and perfused with saline through the left ventricle until colorless perfusate. After hydrangea and brainstem were removed, the brains were collected and homogenized. Evans blue was extracted from the brain with N,N‐dimethylformamide. After centrifugation at 3700 rpm for 15 min, the absorbance of supernatant was detected at 620 nm wavelength.

[5] = tested on: TNF‐α; experiment: serum TNF-α in MCAO rats (ELISA); settings: 15 mg/kg, 48 h, p < 0.05
Procedure: as §1, §2

[6] = tested on: MCAO rats; experiment: brain water content (dry/wet weight) in MCAO rats; settings: 15 mg/kg (SYS18 high dose; edaravone), 48 h reperfusion, model 83.18% ± 0.71%
Procedure: as §1
The brain water content was evaluated by measuring difference between the dry and wet weights of brains. Briefly, after rats were sacrificed after 48 h of reperfusion, the brains were measured immediately to obtain the wet weights. Then, the brains were drying in a constant temperature oven at 100°C for 24 h, followed by measurements to obtain the dry weights. Brain water content was calculated according to the following formula, brain water content = 100% × (wet weight − dry weight)/wet weight.

## CC1=NN(c2ccccc2)C(=O)C1 [edaravone, reference compound]
[1]
  neurological score: 1.50 ± 0.61
[2]
  IL-1β in serum vs model group: significantly decreased
[3]
  SOD level in serum vs model group: could improve SOD level in serum
[4]
  Evans blue content in brain tissue: 6.20 ± 2.76 µg/g
[5]
  TNF-α in serum vs model group: significantly decreased
[6]
  brain water content: 81.13% ± 1.98%
